Measurements from patent US10039283B2, “Substituted pyrazolyl-nicotin(thio)amide derivatives and their use as fungicides” (BAYER CROPSCIENCE AKTIENGESELLSCHAFT, priority 2014, dated 2018).

Assay: Log P by HPLC on reversed phase, method [a], acidic range (0.1% formic acid)
Format: physicochemical
Conditions: LC-UV, 0.1% formic acid in water and acetonitrile

SMILES | LogP
O=C(Nc1cnn(-c2ccccc2)c1Br)c1cccnc1C(F)F [Example 135] | 2.07^[a]
O=C(Nc1cnn(-c2cccc(C(F)(F)F)c2)c1-c1cccc(Cl)c1)c1cccnc1C(F)F [Example 53] | 3.48^[a]
CCc1c(NC(=O)c2cc(C)cnc2C(F)F)cnn1-c1ccc(C(F)(F)F)cc1 [Example 240] | 3.00^[a]
Cc1c(NC(=O)c2cccnc2C(F)F)cnn1CCC(C)C [Example 2] | 2.01^[a]
O=C(Nc1cnn(-c2ccc(Cl)cc2Cl)c1C(F)(F)F)c1ccc(Cl)nc1C(F)F [Example 162] | 3.85^[a]
CC(C)c1ccc(-n2ncc(NC(=O)c3cccnc3C(F)F)c2C(F)(F)F)cc1 [Example 90] | 3.55^[a]
O=C(Nc1cnn(-c2ccc(F)cc2)c1C(F)(F)F)c1cccnc1C(F)F [Example 89] | 2.64^[a]
CCOc1c(NC(=O)c2cccnc2C(F)F)cnn1-c1ccc(Cl)cc1 [Example 225] | 2.62^[a]
CCc1c(NC(=O)c2cc(C)cnc2C(F)F)cnn1-c1ccc(Cl)cc1 [Example 214] | 2.73^[a]
Cc1nn(-c2ccccc2)c(Cl)c1NC(=O)c1cccnc1C(F)F [Example 75] | 2.08^[a]
CCc1c(NC(=O)c2cc(C)cnc2C(F)F)cnn1-c1ccccc1C [Example 204] | 2.44^[a]
Cc1cccc(-n2ncc(NC(=O)c3cc(C)cnc3C(F)F)c2C(F)(F)F)c1 [Example 154] | 2.96^[a]
CCc1c(NC(=O)c2cccnc2C(F)F)cnn1-c1ccccc1 [Example 119] | 2.01^[a]
O=C(Nc1cnn(-c2ccc(Cl)cc2)c1C(F)(F)F)c1cccnc1CF [Example 236] | 2.67^[a]
O=C(Nc1cnn(-c2ccc(Br)cc2)c1-c1ccc(F)cc1)c1cccnc1C(F)F [Example 195] | 3.20^[a]
N#Cc1c(NC(=O)c2ccc(Cl)nc2C(F)F)cnn1-c1ccccc1 [Example 164] | 2.90^[a]
CCC(C)n1ncc(NC(=O)c2cccnc2C(F)F)c1C (centres unmarked) [Example 126] | 1.63^[a]
Cc1cnc(C(F)F)c(C(=O)Nc2cnn(-c3ccc(Cl)cc3)c2C(C)C)c1 [Example 211] | 2.86^[a]
O=C(Nc1cnn(-c2ccccc2C(F)(F)F)c1-c1ccc(F)cc1)c1cccnc1C(F)F [Example 130] | 2.80^[a]
Cc1cnc(C(F)F)c(C(=O)Nc2cnn(-c3ccc(F)cc3)c2C(F)(F)F)c1 [Example 141] | 2.86^[a]
Cc1c(NC(=O)c2ccc(Cl)nc2C(F)F)cnn1C(C)(C)C [Example 37] | 2.25^[a]
O=C(Nc1cnn(-c2cc(F)cc(F)c2)c1C(F)F)c1cccnc1C(F)F [Example 29] | 2.62^[a]
O=C(Nc1cnn(Cc2ccccc2)c1C(F)(F)F)c1cccnc1C(F)F [Example 97] | 2.71^[a]
O=C(Nc1cnn(-c2ccc(F)cc2)c1C(F)F)c1cccnc1C(F)F [Example 32] | 2.20^[a]
O=C(Nc1cnn(-c2cccc(Cl)c2Cl)c1C(F)(F)F)c1cccnc1C(F)F [Example 94] | 3.11^[a]
O=C(Nc1cnn(-c2cccc(F)c2)c1C(F)F)c1cccnc1C(F)F [Example 25] | 2.37^[a]

SMILES | LogP
Cc1ncccc1C(=O)Nc1cnn(-c2ccc(Br)cc2)c1C(F)(F)F [Example 249] | 2.28^[a]
Cc1cccc(-n2ncc(NC(=O)c3cc(C)cnc3C(F)F)c2C)c1 [Example 67] | 2.35^[a]
O=C(Nc1cnn(-c2ccc(Cl)c(Cl)c2)c1Cl)c1cccnc1C(F)F [Example 252] | 3.06^[a]
CC(C)CCn1ncc(NC(=O)c2cccnc2C(F)F)c1C(C)C [Example 125] | 2.53^[a]
O=C(Nc1cnn(-c2ccc(F)cc2)c1Br)c1cccnc1C(F)F [Example 192] | 2.17^[a]
CC(C)c1c(NC(=O)c2cccnc2C(F)F)cnn1-c1ccccc1Cl [Example 109] | 2.35^[a]
Cc1cnc(C(F)F)c(C(=O)Nc2cnn(-c3ccccc3C)c2C(C)C)c1 [Example 205] | 2.60^[a]
Cc1cnc(C(F)F)c(C(=O)Nc2cnn(-c3cccc(Cl)c3)c2C)c1 [Example 65] | 2.51^[a]
Cc1cnc(C(F)F)c(C(=O)Nc2cnn(-c3c(Cl)cccc3Cl)c2C(F)(F)F)c1 [Example 171] | 3.16^[a]
CCC(CC)n1ncc(NC(=O)c2cccnc2C(F)F)c1C [Example 8] | 1.89^[a]
Cc1c(NC(=O)c2cccnc2C(F)F)cnn1-c1ccc(C(F)(F)F)cc1 [Example 114] | 2.53^[a]
Cc1ccc(Oc2ccc(-n3ncc(NC(=O)c4cccnc4C(F)F)c3C(F)(F)F)cc2)cc1 [Example 245] | 4.03^[a]
O=C(Nc1cnn(-c2ccc(Cl)cc2)c1C(F)(F)F)c1ccc(Br)nc1C(F)F [Example 145] | 3.73^[a]
Cc1cccc(-n2ncc(NC(=O)c3ccc(Cl)nc3C(F)F)c2C)c1 [Example 68] | 2.73^[a]
O=C(Nc1cnn(-c2ccc(Cl)c(Cl)c2)c1C(F)(F)F)c1ccc(Br)nc1C(F)F [Example 181] | 4.19^[a]
COc1cnc(C(F)F)c(C(=O)Nc2cnn(-c3cccc(Cl)c3Cl)c2C(F)(F)F)c1 [Example 165] | 3.37^[a]
CC(C)Oc1c(NC(=O)c2cccnc2C(F)F)cnn1-c1ccc(Cl)cc1 [Example 226] | 2.86^[a]
Cc1nn(-c2ccccc2)c(C)c1NC(=O)c1cccnc1C(F)(F)F [Example 18] | 2.07^[a]
O=C(Nc1cnn(-c2ccc(Cl)cc2Cl)c1C(F)(F)F)c1cccnc1C(F)F [Example 93] | 3.27^[a]
O=C(Nc1cnn(-c2ccc(F)cc2)c1-c1cccc(Cl)c1)c1cccnc1C(F)F [Example 128] | 2.92^[a]
O=C(Nc1cnn(-c2cccc(Cl)c2)c1C(F)(F)F)c1cccnc1C(F)F [Example 84] | 3.00^[a]
O=C(Nc1cnn(-c2ccccc2F)c1-c1cccc(F)c1)c1cccnc1C(F)F [Example 146] | 2.51^[a]
O=C(Nc1cnn(-c2ccccc2Cl)c1-c1ccccc1)c1cccnc1C(F)F [Example 79] | 2.53^[a]
CCc1ccc(-n2ncc(NC(=O)c3cccnc3C(F)F)c2C(F)(F)F)cc1 [Example 255] | 3.19^[a]
O=C(Nc1cnn(-c2ccc(C(F)(F)F)cc2)c1-c1ccc(F)cc1)c1cccnc1C(F)F [Example 184] | 3.31^[a]
Cc1ccc(C)c(-n2ncc(NC(=O)c3cccnc3C(F)F)c2C)c1 [Example 13] | 2.25^[a]

SMILES | LogP
O=C(Nc1cnn(-c2ccccc2F)c1-c1ccc(F)cc1)c1cccnc1C(F)F [Example 147] | 2.51^[a]
Cc1cnc(C(F)F)c(C(=O)Nc2cnn(-c3ccc(C(C)C)cc3)c2C(F)(F)F)c1 [Example 142] | 3.78^[a]
COc1ccc(-n2ncc(NC(=O)c3cccnc3C(F)F)c2Cl)cc1 [Example 189] | 2.09^[a]
O=C(Nc1cnn(-c2ccc(Oc3ccc(Cl)cc3)cc2)c1C(F)(F)F)c1cccnc1C(F)F [Example 244] | 4.11^[a]
O=C(Nc1cnn(-c2ccc(I)cc2)c1C(F)(F)F)c1cccnc1C(F)F [Example 234] | 3.25^[a]
CCc1c(NC(=O)c2cccnc2C(F)F)cnn1-c1ccccc1Cl [Example 110] | 2.17^[a]
Cc1ccccc1-n1ncc(NC(=O)c2cccnc2C(F)F)c1C [Example 115] | 1.93^[a]
CCc1c(NC(=O)c2cc(C)cnc2C(F)F)cnn1-c1cccc(C)c1 [Example 206] | 2.57^[a]
Cc1c(NC(=O)c2ccc(Cl)nc2C(F)F)cnn1-c1cccc(Cl)c1 [Example 66] | 2.88^[a]
Cc1cnc(C(F)F)c(C(=O)Nc2cnn(-c3cc(Cl)cc(Cl)c3)c2C(F)(F)F)c1 [Example 174] | 3.89^[a]
O=C(Nc1cnn(-c2ccc(Br)cc2)c1Br)c1cccnc1C(F)F [Example 150] | 2.67^[a]
Cc1cnc(C(F)F)c(C(=O)Nc2cnn(-c3cc(Cl)ccc3Cl)c2C(F)(F)F)c1 [Example 175] | 3.39^[a]
Cc1cnc(C(F)F)c(C(=O)Nc2cnn(-c3ccc(Cl)c(Cl)c3)c2C(F)(F)F)c1 [Example 179] | 3.76^[a]
CCc1c(NC(=O)c2cc(C)cnc2C(F)F)cnn1-c1ccc(C)cc1 [Example 207] | 2.57^[a]
O=C(Nc1cnn(-c2cccc(F)c2)c1C(F)(F)F)c1cccnc1C(F)F [Example 62] | 2.66^[a]
CCc1c(NC(=O)c2cc(C)cnc2C(F)F)cnn1-c1cccc(Cl)c1 [Example 213] | 2.71^[a]
O=C(Nc1cnn(-c2cc(Cl)ccc2Cl)c1C(F)(F)F)c1ccc(Br)nc1C(F)F [Example 178] | 3.85^[a]
O=C(Nc1cnn(-c2ccc(C(F)(F)F)cc2)c1-c1ccc(Cl)cc1)c1cccnc1C(F)F [Example 182] | 3.55^[a]
CCc1c(NC(=O)c2cccnc2C(F)F)cnn1-c1cccc(Cl)c1 [Example 107] | 2.48^[a]
Cc1ccccc1-n1ncc(NC(=O)c2cccnc2C(F)F)c1C(F)F [Example 27] | 2.37^[a]
O=C(Nc1cnn(-c2cc(Cl)cc(Cl)c2)c1Cl)c1cccnc1C(F)F [Example 202] | 3.19^[a]
O=C(Nc1cnn(-c2ccc(Br)cc2)c1OCC(F)F)c1cccnc1C(F)F [Example 235] | 2.68^[a]
COc1cnc(C(F)F)c(C(=O)Nc2cnn(-c3cc(Cl)ccc3Cl)c2C(F)(F)F)c1 [Example 177] | 3.39^[a]
O=C(Nc1cnn(-c2ccccc2Cl)c1Br)c1cccnc1C(F)F [Example 217] | 2.18^[a]
CC(C)c1cccc(-n2ncc(NC(=O)c3cccnc3C(F)F)c2C(F)(F)F)c1 [Example 3] | 3.51^[a]
O=C(Nc1cnn(-c2ccc(Cl)c(Cl)c2)c1C(F)(F)F)c1ccc(Cl)nc1C(F)F [Example 180] | 4.11^[a]

Same assay, conditions: reversed phase HPLC column, LC-UV, 0.1% formic acid in water and acetonitrile

SMILES | chromatographic logP
O=C(Nc1cnn(-c2ccccc2)c1C(F)(F)F)c1ccc(Cl)nc1C(F)F [Example 1, 6-chloro-2-(difluoromethyl)-N-[1-phenyl-5-(trifluoromethyl)-1H-pyrazol-4-yl]nicotinamide] | 2.8
FC(F)c1cccc(-n2ncc(NC(=S)c3cccnc3C(F)F)c2C(F)F)c1 [Example 34, 2-(difluoromethyl)-N-{5-(difluoromethyl)-1-[3-(difluoromethyl)phenyl]-1H-pyrazol-4-yl}pyridine-3-carbothioamide] | 2.9
